{
  "source": "paper PMC5669199",
  "about": "“CM352 Reduces Brain Damage and Improves Functional Recovery in a Rat Model of Intracerebral Hemorrhage” (Journal of the American Heart Association: Cardiovascular …, 2017)",
  "key": {"[1]": {"system": "apoptotic cells in perihematomal area", "experiment": "TUNEL analysis of apoptotic cells in perihematomal area", "format": "in vivo, rat", "settings": "14 days after ICH, n=3", "description": "After the completion of the neuroimaging study, 14 days after ICH, animals were euthanized by an overdose of anesthetic (sevoflurane 8%) and perfused with PBS and 4% formaldehyde. The brain was removed, axially sliced (2 mm thick), fixed in 4% formaldehyde (4 hours), transferred to 20% sucrose in PBS (4°C), included in optimal cutting temperature compound (Sakura Finetek, Torrance, CA), and stored at −80°C. Slices were cut into 8‐μm‐thick slices using a cryostat (Sakura Finetek Europe BV, Leiden, The Netherlands).\nBrain slices were dried at 38°C for 3 hours, and the optimal cutting temperature compound was then removed by washing the slices twice in PBS. Antigen retrieval was performed by immersion of slices in a thermal bath of citrate buffer (pH 6.0) for 20 minutes at 99°C. To detect apoptotic cells, a terminal deoxynucleotidyl transferase dUTP nick end labeling assay was performed. […] Slices were mounted (Polysciences, Eppelheim, Germany) and photographed in a Leica DMI 6000 B microscope with Leica Application Suite Advance Fluorescence software, version 1.0.0 (LAS AF; Leica Microsystems, Wetzlar, Germany).\nA quantitative analysis of terminal deoxynucleotidyl transferase dUTP nick end labeling was performed using 3 animals from each group. […] Positive nuclei were counted manually."}, "[2]": {"system": "tissue‐type plasminogen activator–induced fibrinolysis in mouse whole blood", "experiment": "Whole blood clot formation and lysis assay (ROTEM thromboelastometry), mouse blood", "format": "biochemical", "settings": "tPA‐induced fibrinolysis, read-out: effective concentration to delay lysis time by 50%", "description": "Citrated blood samples from (n=4) rats (Sprague Dawley) and (n=16) mice ([…], Harlan Iberica) were assayed with a ROTEM analyzer (Pentapharm GmbH, Munich, Germany) as previously described.20 In a prewarmed cuvette and holder we pipetted 1 μL tissue-type plasminogen activator (150 000 U/mL), 20 μL Start-tem reagent (Pentapharm GmbH), 20 μL In-tem reagent (Pentapharm GmbH), 3 μL DMSO (SIGMA) or test compounds in DMSO, and 300 μL prewarmed citrated blood. The cup holder containing the sample mixture was placed immediately on the appropriate channel. Measurements were recorded for 60 minutes to allow clot formation and lysis, and results are expressed as effective concentration to delay lysis time by 50%."}, "[3]": {"system": "rat model of collagenase‐induced ICH", "experiment": "Hematoma and lesion volume by T2‐weighted MRI in ICH rat model", "format": "in vivo", "description": "Glucose levels were analyzed before surgery (mean 144.3±22.1 mg/dL). Rats were placed in a stereotaxic frame (Stoelting Co, Wood Dale, IL) under sevoflurane anesthesia. After drilling of a small burr hole, 1 μL of saline containing 0.2 U/μL bacterial collagenase type VII (Sigma‐Aldrich Corp, St. Louis, MO) was injected into the right striatum (0.6 mm anterior to bregma, −3.0 mm lateral and 5.5 mm depth) using a Hamilton syringe with a 30 G needle. Injections took place over a 10‐minute period, and the needle remained in place for additional 10 minutes before removal (1 mm/min). The burr hole was filled with bone wax (Ethicon, Somerville, NJ), and the scalp incision was closed with sutures.\n. The same experimental design and setting were used to assess the effect of late (3 hours) CM352 treatment. Required sample size was calculated from previous studies using the same model21 in order to be able to detect a 25% effect size on hematoma growth versus controls (2‐tailed t test). Six animals per group are required to detect this difference with a power (1−β) of 0.8 and α=0.05. N was calculated using EPIDAT software (http://www.sergas.es/Saude-publica/EPIDAT-4-2). All treatments were given as a single bolus (jugular) 60 minutes after the collagenase injection for ICH induction. […]\nGradient‐echo pilot scans were performed at the beginning of each imaging session for accurate positioning of the animal inside the magnet bore. Multislice axial T2‐weighted imaging was performed at baseline (1 hour after IHC induction), and at 3 hours, 24 hours, and 14 days after ICH. T2‐weighted images were acquired using a RARE (factor n=4) sequence with the following acquisition parameters: field‐of‐view 19.2×19.2 mm^2, image matrix 192×192 (isotropic in‐plane resolution of 0.1×0.1 mm/pixel), 18 consecutive slices of 0.5 mm thickness.\nMagnetic resonance data analysis was performed using Para Vision (Bruker Medical, Ettlingen, Germany), and images were processed with ImageJ (W. S. Rasband, National Institutes of Health, Bethesda, MD: http://rsb.info.nih.gov/ij). The analyzed region of interest was the hematoma and lesion region. Hematoma volumes (basal and 3 and 24 hours) as well as lesion volume at day 14 were manually traced from T2 maps, and the mean signal intensity was measured by 2 well‐trained imaging analysts blind to the experimental conditions."}, "[4]": {"system": "tissue‐type plasminogen activator–induced fibrinolysis in human blood", "set-up": "method as in PMID 25686022", "settings": "read-out: effective concentration to delay lysis time by 50%; cited from earlier work"}, "Plasma protein binding": {"experiment": "Plasma protein binding", "format": "in vitro ADME", "settings": "rat, read-out: Plasma prot binding (% unbound)"}, "[5]": {"settings": "1 mg/kg 3 hours after collagenase, 5 hours"}, "[6]": {"settings": "1 mg/kg 3 hours after collagenase, 24 hours"}, "[7]": {"settings": "1 mg/kg iv 1 hour after collagenase, 3 hours"}, "[8]": {"settings": "1 mg/kg iv 1 hour after collagenase, 24 hours"}},
  "data": [
    {"smiles": "CNC(=O)c1ccc(Oc2ccc(S(=O)(=O)[C@]3(C(=O)NO)CCC4(CCNCC4)C3)cc2)cc1", "note": "[CM352, 4‐[4‐[[(3R)‐3‐(Hydroxycarbamoyl)‐8‐azaspiro[4.5]decan‐3‐yl]sulfonyl]phenoxy]‐N‐methylbenzamide]", "values": [
      {"measurement": "apoptosis (TUNEL‐positive cells) in the perihematomal area versus control", "setting": "[1]", "result": "No effects on apoptosis"},
      {"measurement": "EC50", "setting": "[2]", "result": 200, "unit": "nM"},
      {"measurement": "hematoma expansion", "setting": "[3]; [5]", "result": "115±17", "unit": "%"},
      {"measurement": "reduction of hematoma expansion versus control", "setting": "[3]; [5]", "result": 62, "unit": "%"},
      {"measurement": "hematoma expansion", "setting": "[3]; [6]", "result": "114±50", "unit": "%"},
      {"measurement": "reduction of hematoma expansion versus control", "setting": "[3]; [6]", "result": 58, "unit": "%"},
      {"measurement": "lesion size versus control", "setting": "[3]; 1 mg/kg 3 hours after collagenase, up to day 14, P<0.05", "result": "differences in lesion size were patent between the groups"},
      {"measurement": "hematoma volume after late administration", "setting": "[3]; 1 mg/kg 3 hours after collagenase, versus control P<0.01", "result": "hematoma stabilized"},
      {"measurement": "hematoma expansion", "setting": "[3]; [7]", "result": "200±86", "unit": "%"},
      {"measurement": "reduction of hematoma expansion versus control", "setting": "[3]; [7]", "result": 35, "unit": "%"},
      {"measurement": "reduction in hematoma volume compared with controls", "setting": "[3]; 1 mg/kg iv 1 hour after collagenase, 3 hours after ICH", "result": 29, "unit": "%"},
      {"measurement": "hematoma expansion", "setting": "[3]; [8]", "result": "133±63", "unit": "%"},
      {"measurement": "reduction of hematoma expansion versus control", "setting": "[3]; [8]", "result": 56, "unit": "%"},
      {"measurement": "reduction in hematoma volume compared with controls", "setting": "[3]; 1 mg/kg iv 1 hour after collagenase, 24 hours after ICH", "result": 46, "unit": "%"},
      {"measurement": "lesion volume smaller than controls", "setting": "[3]; 1 mg/kg iv 1 hour after collagenase, 14 days", "result": 48, "unit": "%"},
      {"measurement": "hematoma volume at 1 hour (basal)", "setting": "[3]; early‐treatment experiment, 1 hour after collagenase, before treatment, n=6", "result": "23.2±3.5", "unit": "mm^3"},
      {"measurement": "hematoma volume at 1 hour", "setting": "[3]; late‐treatment experiment, 1 hour after collagenase, before treatment, n=6", "result": "16.0±1.9", "unit": "mm^3"},
      {"measurement": "hematoma volume at 3 hours", "setting": "[3]; late‐treatment experiment, 3 hours after collagenase, time of treatment, n=6", "result": "39.8±6.7", "unit": "mm^3"},
      {"measurement": "EC50", "setting": "[4]", "result": 0.7, "unit": "nM"},
      {"measurement": "fraction unbound", "setting": "Plasma protein binding", "result": 0.4}
    ]}
  ]
}
